# In patent US9834581B2, “Cell penetrating peptides for intracellular delivery of molecules” (AADIGEN, LLC, priority 2012, dated 2017):
# Where two headings read alike, the source gives them in different places. *1 amine or outer side, *2 acyl side, *3 side chain or, on linkers, in order; H or OH if unused. Where a SMILES comes first, the peptide text is derived from it. [ ]: non-standard residue; d: D form. Cysteamide = C(CS[*:3])N[*:1]; βAla = NCCC(=O)O
# Key:
# HEK2 = assay: cells; assay type: cell-based
# Description: (§1) Adherent HS68 fibroblasts, HeLa, PC3, CEM-SS, U20S, MCF-7, and HEK2 cell lines (from American Type Culture Collection (ATCC)), as well as MEF and PBMC, were cultured in Dulbecco's Modified Eagle's Medium supplemented with 2 mM glutamine, 1% antibiotics (streptomycin 10,000 μg/ml, penicillin, 10,000 IU/ml) and 10% (w/v) foetal calf serum (FCS), at 37° C. in a humidified atmosphere containing 5% CO2. Stock solutions of VEPEP-4/peptide particles were prepared by complexing 1 μM peptide with VEPEP-4 peptides at a molar ratio of 1/20 for 30 min at 37° C. Lower concentrations of VEPEP-4-carrier/peptide (from 500 nM to 1 μM) were obtained by serial dilution of the stock complexes in PBS, in order to preserve the same VEPEP-4-carrier/peptide ratio. 150,000 cells seeded in a 35 mm dish the day prior transfection, were grown to 60% confluence and overlaid with 200 μl of preformed complexes, incubated for 3-5 min, then 400 μl of DMEM were added. After 30 min. incubation at 37° C., 1 ml of fresh DMEM containing 16% foetal calf serum (FCS) was added in order to reach a final FCS concentration of 10%, without removing the overlay of VEPEP-4/peptide complexes. Cells were returned to the incubator for 24 hrs. For CDK2 derived peptides cell proliferation was monitored after 24 and 48 hrs. For peptide-targeting integrase, HIV proliferation was analyzed on activated PBMC cells after 3 and 5 days. Data reported are an average of 3 or 4 distinct experiments.
# (§2) VEPEP-4 peptides have been used for the delivery of different small fluorescent hydrophobic and charged molecules as well as doxorubicin on different cell lines including primary cell lines and challenging cell lines. VEPEP-4 peptides form stable particles with small aromatic molecules including doxorubicin. Effect of VEPEP-4 mediated delivery of doxorubicin has been investigated on cancer cell viability. […] The impact of carrier peptides to improve cellular uptake of small molecule drugs was estimated by following inhibition of proliferation of cancer cells.
# Hela [1] = assay: cells
# Description: Cells were returned to the incubator for 24 hrs.
# Effect of VEPEP-4 mediated delivery of doxorubicin has been investigated on cancer cell viability.
# Peptide (C4) = assay: Fluorescence titration of VEPEP-4 binding to peptide cargo
# Description: (§3) Fluorescence experiments were performed on a PTI spectrofluorimeter at 25° C. in a NaCl 154 mM buffer. Intrinsic Trp-fluorescence of VEPEP-4 was excited at 290 nm and emission spectrum was recorded between 310 and 400 nm, with a spectral band-pass of 2 and 8 nm for excitation and emission, respectively. FITC-fluorescence of labelled-peptide was excited at 492 nm and emission recorded between 500 and 580 nm. For VEPEP-4/peptide interaction, 0.5 μM of FITC-labelled peptide was titrated by increasing concentrations of VEPEP-4. All measurements were corrected for the dilution and curve fitting were performed by using Grafit software (Erithacus).
# (§4) VEPEP-4i (SEQ ID No: 1) and VEPEP-4j (SEQ ID No: 2) peptides form stable complexes with peptides. The binding of cargos to VEPEP-4 was monitored by fluorescence spectroscopy using the both intrinsic Trp group of VEPEP-4 (4 Trp-residues) and extrinsic fluorescently labeled cargoes (using Cy5 or FITC). Curve fitting reveal that VEPEP-4 strongly binds the different cargoes with dissociation constant in the nanomolar range (Table 1 and FIG. 1).
# Cyclic peptide (PC4) = assay: Fluorescence titration of VEPEP-4 binding to cyclic peptide cargo
# Description: as §3, §4
# [2] = Fluorescence titration of VEPEP-4 binding to small molecule cargo
# Description: as §3
# VEPEP-4 peptides also form stable particles with small aromatic molecules including daunomycin, Paclitaxel, doxorubicin, porphyrin and charged molecules including nucleotide, nucleoside and peptide-analogue of nucleic acids or fluorescent dyes. The dissociation constant for small hydrophobic molecule ranges between 0.05 to 2 μM, depending on the nature of the dyes and of the peptides.
# Binding of small molecule cargoes has been investigated in detail depending on the nature of the SMH. Several hydrophobic and charges molecules have been use (Daunomycin, Paclitaxel, doxorubicin, porphyrin) and charged molecules (nucleotide, nucleoside and fluorescent dyes).
# MCF7 [3] = assay type: cell-based, Human
# Description: as §1, §2
# MEF = assay: VEPEP-4 mediated delivery of fluorescently labelled peptide (fluorescence microscopy or FACS); assay type: cell-based, Mouse; settings: uptake of fluorescently labelled peptide cargo
# Description: as §1
# (§5) VEPEP-4 peptides have been used for the delivery of different peptides into different cell lines, including primary cell lines, stem cell lines and challenging cell lines. Peptide delivery was monitored using three approaches, fluorescence spectroscopy and monitoring biological responses (anti proliferation and anti viral responses).
# (§6) 1—Fluorescently labelled peptide was visualized in the different cell lines using fluorescence microscopy or FACS sorting (Table 3). In most of the cell lines, the uptake of Cy-5 labelled peptides is more than 70% of the cells.
# CEM-SS = assay: as above; assay type: cell-based, Human; settings: uptake of fluorescently labelled peptide cargo
# Description: as §1, §5, §6
# HS-68 = assay: as above; assay type: cell-based, Human; settings: HS-68, uptake of fluorescently labelled peptide cargo
# Description: as §1, §5, §6
# Hela [4] = assay: as above; assay type: cell-based, Human; settings: uptake of fluorescently labelled peptide cargo
# Description: as §1, §5, §6
# MCF7 [5] = assay: as above; assay type: cell-based, Human; settings: MCF7, uptake of fluorescently labelled peptide cargo
# Description: as §1, §5, §6
# PBMC = assay: as above; assay type: cell-based, Human; settings: uptake of fluorescently labelled peptide cargo
# Description: as §1, §5, §6
# U2OS = assay: as above; assay type: cell-based, Human; settings: uptake of fluorescently labelled peptide cargo
# Description: as §1, §5, §6
# HIV-1LAI = assay type: cell-based; settings: for IC50: 1LAI
# Description: as §1
# The anti-HIV activities of the peptides (PC4D, PC4S, PC6D, PC6S) and VEPEP-4/peptides complexes were assayed according to previously described method (Roisin et al, 2004). Phytohemagglutinin-P (PHA-P)-activated peripheral blood mononuclear cells (PBMC) treated by increasing concentrations of peptide (from 100 to 0.1 nM), one hour later, were infected with hundred 50% tissue culture infectious doses (TCID50) per 100,000 cells of the HIV-1-LAI or different resistant strains (Barre-Sinoussi et al, 1983). Viruses were amplified in vitro on PHA-P-activated PBMC. Viral stock was titrated using PHA-P-activated PBMC, and 50% TCID50 were calculated using Kärber's formula (Karber 1931). Samples were maintained throughout the culture, and cell supernatants were collected at day 7 post-infection and stored at −20 C. Viral replication was measured by quantifying RT activity in cell culture supernatants. In parallel, cytotoxicity of the compounds was evaluated in uninfected PHA-P-activated PBMC by colorimetric 3-(4-5 dimethylthiazol-2-yl)2,5 diphenyl tetrazolium bromite (MTT) assay on day 7 (Mossmann 1983). Experiments were performed in triplicate and repeated with another blood donor. […]
# Description for Hela cells: (§7) Adherent HS68 fibroblasts, HeLa, PC3, CEM-SS, U20S, MCF-7, and HEK2 cell lines (from American Type Culture Collection (ATCC)), as well as MEF and PBMC, were cultured in Dulbecco's Modified Eagle's Medium supplemented with 2 mM glutamine, 1% antibiotics (streptomycin 10,000 μg/ml, penicillin, 10,000 IU/ml) and 10% (w/v) foetal calf serum (FCS), at 37° C. in a humidified atmosphere containing 5% CO2. Stock solutions of VEPEP-4/peptide particles were prepared by complexing 1 μM peptide with VEPEP-4 peptides at a molar ratio of 1/20 for 30 min at 37° C. […] 150,000 cells seeded in a 35 mm dish the day prior transfection, were grown to 60% confluence and overlaid with 200 μl of preformed complexes, incubated for 3-5 min, then 400 μl of DMEM were added. After 30 min. incubation at 37° C., 1 ml of fresh DMEM containing 16% foetal calf serum (FCS) was added in order to reach a final FCS concentration of 10%, without removing the overlay of VEPEP-4/peptide complexes. Cells were returned to the incubator for 24 hrs. For CDK2 derived peptides cell proliferation was monitored after 24 and 48 hrs. […] Data reported are an average of 3 or 4 distinct experiments.
# Description for MCF7 cells: as §7
Compound,Binding (Peptide (C4)),Kd (Peptide (C4)) [nM],Binding (Cyclic peptide (PC4)),Kd (Cyclic peptide (PC4)) [nM],Binding ([2]; cargo Doxorubicin),Kd ([2]; cargo Doxorubicin) [nM],Binding ([2]; cargo FAM-guanosine),Kd ([2]; cargo FAM-guanosine) [nM],Binding ([2]; cargo porphyrin),Kd ([2]; cargo porphyrin) [nM],IC50 (HEK2) [nM],IC50 (MCF7 [3]) [nM],IC50 (Hela [1]) [nM],Efficiency (MEF) [%],Efficiency (CEM-SS) [%],Efficiency (HS-68) [%],Efficiency (Hela [4]) [%],Efficiency (MCF7 [5]) [%],Efficiency (PBMC) [%],Efficiency (U2OS) [%],other results
"CSCC[C@H](NC(=O)[C@H](CCCNC(=N)N)NC(=O)[C@@H](NC(=O)[C@H](CCC(N)=O)NC(=O)[C@H](CCCCN)NC(=O)[C@@H](N)CCCCN)C(C)C)C(=O)N[C@@H](C)C(=O)N[C@@H](Cc1c[nH]cn1)C(=O)N[C@@H](CC(C)C)C(=O)N[C@H](C(=O)N[C@@H](CC(C)C)C(=O)N[C@H](C(=O)O)[C@@H](C)O)C(C)C [C4, KKQVRMAHLVLT] (H-KKQVRMAHLVLT-OH; N-terminus and C-terminus assumed)",,,,,,,,,,,,,,,,,,,,,"IC50 (Hela cells): 50 ± 15 nM; concentration sufficient to block proliferation (Hela cells; Hela, C4 delivered by VEPEP-4): 100 nM; IC50 (MCF7 cells): 60 ± 12 nM; concentration sufficient to block proliferation (MCF7 cells; MCF7, C4 delivered by VEPEP-4): 100 nM"
"COc1cccc2c1C(=O)c1c(O)c3c(c(O)c1C2=O)C[C@@](O)(C(=O)CO)C[C@@H]3O[C@H]1C[C@H](N)[C@H](O)[C@H](C)O1 [Doxo, doxorubicin, reference compound]",,,,,,,,,,,,,,,,,,,,,"IC50 (HEK2; HEK2, Free drug, read-out: IC50): 10000 nM; fold more efficient when complexed with VEPEP-4 (HEK2; complexed versus free drug, cancer cells of Table 5): 25 fold; IC50 (Hela [1]; Homo sapiens, HeLa): 25000 nM"
"CC(=O)NCCC(=O)N[C@@H](Cc1c[nH]c2ccccc12)C(=O)N[C@@H](Cc1c[nH]c2ccccc12)C(=O)N[C@@H](CCCNC(=N)N)C(=O)N[C@@H](CC(C)C)C(=O)N[C@@H](CCCNC(=N)N)C(=O)N[C@@H](CO)C(=O)N[C@@H](Cc1c[nH]c2ccccc12)C(=O)N[C@@H](Cc1ccccc1)C(=O)N[C@@H](CCCNC(=N)N)C(=O)NCCS [Short 3, X1WWRLRSWFR] (Ac-[βAla]WWRLRSWFR-Cysteamide)",yes,10 to 20,yes,50 to 100,yes,100,yes,100,yes,700,1100,900,1200,,,,,,,,
"CC(=O)NCCC(=O)N[C@@H](Cc1c[nH]c2ccccc12)C(=O)N[C@@H](Cc1ccccc1)C(=O)N[C@@H](CCCNC(=N)N)C(=O)N[C@@H](CC(C)C)C(=O)N[C@@H](CO)C(=O)N[C@@H](CC(C)C)C(=O)N[C@@H](CCCNC(=N)N)C(=O)N[C@@H](Cc1ccccc1)C(=O)N[C@@H](Cc1c[nH]c2ccccc12)C(=O)NCCS [Short 4, X1WFRLSLRFW] (Ac-[βAla]WFRLSLRFW-Cysteamide)",yes,10 to 20,yes,50 to 100,yes,10,yes,70,yes,600,500,500,600,67,74,87,58,78,65,65,IC50 (HIV-1LAI): 0.37 ± 0.1 nM
"CC(=O)NCCC(=O)N[C@@H](Cc1c[nH]c2ccccc12)C(=O)N[C@@H](Cc1c[nH]c2ccccc12)C(=O)N[C@@H](CCCNC(=N)N)C(=O)N[C@@H](CC(C)C)C(=O)N[C@@H](CO)C(=O)N[C@@H](CC(C)C)C(=O)N[C@@H](CCCNC(=N)N)C(=O)N[C@@H](Cc1c[nH]c2ccccc12)C(=O)N[C@@H](Cc1c[nH]c2ccccc12)C(=O)NCCS [VEPEP-3i, X1WWRLSLRWW] (Ac-[βAla]WWRLSLRWW-Cysteamide)",yes,10 to 20,yes,50 to 100,yes,50,yes,60,yes,400,400,500,1200,84,70,80,65,50,80,78,IC50 (HIV-1LAI): 0.24 ± 0.1 nM
"CC(=O)NCCC(=O)N[C@@H](Cc1c[nH]c2ccccc12)C(=O)N[C@@H](Cc1ccccc1)C(=O)N[C@@H](CCCNC(=N)N)C(=O)N[C@@H](CC(C)C)C(=O)N[C@@H](CO)C(=O)N[C@@H](CC(C)C)C(=O)N[C@@H](CCCNC(=N)N)C(=O)N[C@@H](Cc1ccccc1)C(=O)N[C@@H](Cc1c[nH]c2ccccc12)C(=O)N[C@@H](CCCNC(=N)N)C(=O)NCCS [VEPEP-3j, X1WFRLSLRFWR] (Ac-[βAla]WFRLSLRFWR-Cysteamide)",yes,10 to 20,yes,50 to 100,yes,70,yes,50,yes,500,300,200,800,70,65,80,62,65,80,81,IC50 (HIV-1LAI): 0.17 ± 0.07 nM
"TWFTEWFT (Ac-TWFTEWFT-Cysteamide; SMILES CC(=O)N[C@H](C(=O)N[C@@H](Cc1c[nH]c2ccccc12)C(=O)N[C@@H](Cc1ccccc1)C(=O)N[C@H](C(=O)N[C@@H](CCC(=O)O)C(=O)N[C@@H](Cc1c[nH]c2ccccc12)C(=O)N[C@@H](Cc1ccccc1)C(=O)N[C@H](C(=O)NCCS)[C@@H](C)O)[C@@H](C)O)[C@@H](C)O) [PC4S, scrambled peptide, control of PC4D, reference compound]",,,,,,,,,,,,,,,,,,,,,"anti viral activity (HIV-1LAI; scrambled peptide, PBMC infected by HIV-1LAI): do not show any anti viral activity"
